Experimental data published in US9636311B2, “N,N′-di-1 naphthylguanidine HCl (NAGH) and N,N′-di-p-nitrophenylguanidine HCl (NAD) treatment for stroke at delayed timepoints” (University of South Florida, priority 2012, dated 2017).
Entries after “also recorded” stand apart in the source; their conditions may differ. Read-outs that look alike come from different tables or passages of the source.

Legend:
stroke = settings: Ruscher, Shamloo et al. 2011; cited from earlier work
[1] = test system: permanent middle cerebral artery occlusion (MCAO); settings: administered beginning 24 hours after permanent MCAO; cited from earlier work
microglial cells [2] = assay: Inhibition of microglial migration evoked by ATP; type: cell-based
Procedure: (§1) FIG. 8 is a series of images confirming NAGH acts as a sigma receptor agonist. A) Concentration-response relationship for NAGH (closed circles) and DTG (open circles) inhibition of microglial migration evoked by 100 μM ATP. […] Points represent mean (±SEM) and for all points, n>9. B) Bar graph of the mean (±SEM) number of microglial cells migrating in response to 100 μM ATP when ATP was added alone (DMEM) or in the presence of 100 μM NAGH. Microglia were further exposed to no σ antagonist (Control), or the σ-1 antagonist, BD-1047 (10 μM, BD-1047), or the σ-2 antagonist, rimcazole (10 μM, Rimcazole). Asterisks denote significant difference between DMEM and NAGH within Control, BD-1047 and Rimcazole groups, respectively. Pound symbols indicate significant difference between Control, BD-1047 and Rimcazole within DMEM and NAGH groups, respectively. P<0.05 and n=24 for all groups.
as §1, with “8A illustrates the concentration-response” for “8 is a series of images confirming NAGH acts as a sigma receptor agonist. A) Concentration-response”, “FIG. 8B depicts a bar” for “B) Bar”

microglial cells [3] = settings: 24 hours after in vitro ischemia; cited from earlier work
rats following MCAO [4] = assay: Brain infarction quantification (Nissl thionin) after MCAO; type: in vivo, rat; settings: s.c. daily for 3 days from 24 h post-MCAO (NAGH 0.86, NAD 2.8, Bromo-DTG 8.2, Chloro-DTG 8.5 mg/kg/day); 30 days post MCAO
Procedure: All animal procedures were performed according to the University of South Florida guidelines for the care and use of animals and protocols were reviewed and approved by the Institutional Animal Care and Use Committee and adhered to the NIH guidelines for the care and use of animals. Adult male Sprague Dawley rats (Harlan) weighing about 250-300 g at the time of surgery were used for the study. All animals were housed two per cage in a temperature controlled room, under a 12 hour light-dark cycle, and given access to water and food ad libitum. Animals were monitored daily for wellness and biweekly for weight loss. For the NAGH studies, a total of 84 animals were randomly assigned to 2 groups: MCAO only (n=42) and rat treated with NAGH (n=42) beginning 24 hour after MCAO.
(§2) MCAO surgeries were performed as described elsewhere (Vendrame M, Cassady C J, Newcomb J, Butler T, Pennypacker K R, Zigova T, et al. Stroke. 2004; 35:2390-2395). Briefly, rats were anesthetized with isoflurane, and the right common carotid and external carotid arteries were exposed using blunt dissection techniques. The vagus nerve was separated from common carotid artery and the external carotid artery was ligated proximally, and transected near the bifurcation. An embolus 40 mm in length (4.0 siliconized monofilament) was inserted into the external carotid artery and fed distally into the origin of the middle cerebral artery (˜25 mm from insertion) through the internal carotid artery. Blood samples were taken and analyzed using an i-STAT handheld analyzer for hemoglobin, hematocrit, ionized calcium, glucose, sodium, potassium, pH, pCO2, HCO3, TCO2, base excess, pO2, and O2. Cerebral blood flow was recorded using a Laser Doppler Monitor (Moor Instruments) to verify occlusion. Afterwards, the embolus was ligated permanently into the vessel and the neck incision was closed. Animals were treated with Ketoprofen IM (10 mg/kg) for three days post-surgery.
(§3) For the NAGH studies, vehicle or NAGH were prepared fresh each day. Daily subcutaneous injections (s.c) were administered beginning about 24 hours after MCAO and continued daily to about 72 hours post-surgery (FIG. 1). Animals received a total of 3 injections. A total of 84 animals were randomly assigned into 2 groups: Rats treated with vehicle (40% DMSO in sterile saline, n=42), or rats treated with 0.86 mg/kg NAGH (n=42).
For the studies with other compounds based on the structure of DTG, twenty-four hours after MCAO, the rats began a sigma agonist treatment regimen. Vehicle or drug was prepared fresh each day. […]
Infarct size was determined by Nissl thionin staining. […]

rats following MCAO [5] = assay: Grip strength test after MCAO; type: in vivo, rat; settings: NAD 2.8 mg/kg s.c. x3; 30 days after MCAO; p=0.0007
Procedure: (§4) For NAD testing, a total of 32 animals were randomly assigned into 2 groups: Vehicle (n=16), and rat treated with 2.8 mg/kg NAD (n=16). Vehicle consisted of 40% DMSO in sterile saline.
Motor deficits were assessed using a grip strength meter (Bioseb, # BIO-GS3). The animals were held so the front left paw could firmly grasp the bar of the strength meter, and then pulled straight backward until its front paw released its grasp. Grip strength was recorded in Newtons (N). This test was repeated 3 times.

rats following MCAO [6] = assay: Battery of behavioral tests after MCAO (corner, grip, rotorod, step, cylinder); type: in vivo, rat; settings: NAD 2.8 mg/kg s.c. x3; 30 days after MCAO
Procedure: After surgery, animals were tested was performed once before surgery and 30 days post-surgery for motor coordination and behavior. All behavioral data are reported as mean+sem.
Rotorod test, which measures motor coordination, was conducted using Omni-rotor Rotorod (Omnitech, Inc). Animals were trained on the accelerating rotorod apparatus for 3 consecutive days before times were collected. Animals were placed on the revolving rod and instrument was set to accelerate to a maximum speed of 40 rpm over 180 seconds. Latency to fall (in seconds) was recorded. This test was performed in triplicate once per day for 3 days.
(§5) Rats were held tightly with one forelimb placed on a hard flat table top and then pulled for a length of 1 meter in the direction of the placed forelimb at constant velocity. The test was repeated with the opposite forelimb. This was repeated three times for each forelimb and the percent of contralateral forelimb paw was obtained. The bias was standardized as the absolute number of steps with the contralateral paw minus 100.
The animals were placed in a transparent cylinder about 20 cm in diameter and 30 cm in height with an open top. The number times each paw was placed on the sides of the cylinder was counted a5 minute period. The test was videotaped and a mirror was placed behind the cylinder allowing the experimenter to see the placement of paws when the animal was facing away from the camera.
A 30 degree angle was formed using the edges of two plexiglass boards. The animals were placed halfway into the corner facing the corner and the total number of left and right turns was recorded. A total of 10 trials were conducted and videotaped. A non-lesioned animal turned randomly toward the left or right, while a lesioned animal preferentially turned toward the non-impaired (left) side. Results were reported as the percentage of ipsilateral (injury site, right side) versus contralateral turns.
Motor deficits were assessed using a grip strength meter (Bioseb, # BIO-GS3). […] Grip strength was recorded in Newtons (N). […]

rats following MCAO [7] = assay: Step test after MCAO; type: in vivo, rat; settings: NAD 2.8 mg/kg s.c. x3; 30 days post-stroke; p<0.05
Procedure: as §4, §5

rats following MCAO [8] = assay: Spontaneous activity (automated activity monitor) after MCAO; type: in vivo, rat; settings: NAD 2.8 mg/kg s.c. x3; 30 days after MCAO; day and night
Procedure: as §2, §3, §4
Spontaneous Activity was measured during both the day (1 hr) and night (12 hrs) using an automated activity monitor (VersaMax, Accuscan Instruments, Inc). Spontaneous Activity was measured prior to stroke to establish the normal baseline for each individual animal as well as 1 month after the MCAO. The animals were placed in a Plexiglas box and allowed to roam freely. There is a three dimensional infrared array in this box and when a beam is broken, activity is recorded. A total of sixteen parameters were measured including: Vertical movement, Horizontal movement, and Stereotypic activity were selected for analysis: Horizontal activity (HA), Total distance travelled (TD), Number of movements (MVN), Movement time (MVT), Vertical activity (VA), Number of vertical movements (VMN), vertical time (VT), Stereotype counts (SC), Number of Stereotypy (SN), Stereotypy time (ST), Clockwise rotation (CR), counterclockwise rotation (CCR), Margin distance (MD), Marginal time (MT), Center distance (CD), and Center time (CT). The data are presented as mean+SEM of percent of baseline behavior.

[9] = migration evoked by 100 μM ATP, two-component Langmuir-Hill fit

For `COc1ccc(CCN2CCN(CCCc3ccccc3)CC2)cc1OC` [SA4503], the Infarct size (stroke) is listed as “without decreasing infarct size” and the Sensorimotor function (stroke) is listed as “improved sensorimotor function”.

In the case of `Cc1ccccc1NC(=N)Nc1ccccc1C` [DTG, 1,3-di-o-tolylguanidine, reference compound], the “Infarct size 96 hrs post-MCAO” value [1] is listed as “decreased infarct volume; also recorded: decreased infarct size”, the Long-term functional recovery [1] is listed as “failed to improve long-term functional recovery” and the “Emax, high affinity component” value (microglial cells [2]; [9]) is listed as 0.38. For the same compound, the “Emax, low affinity component” value (microglial cells [2]; [9]) was 0.62, the “Hill coefficient, high affinity component” value (microglial cells [2]; [9]) was 0.59 and the “Hill coefficient, low affinity component” value (microglial cells [2]; [9]) was 1.7. The IC50 (microglial cells [2]; migration evoked by 100 μM ATP, two-component Langmuir-Hill fit, read-out: IC50, high affinity component) was 0.76 µM, the IC50 (microglial cells [2]; read-out: IC50, low affinity component) was 80 µM and the Microglial cell death (microglial cells [3]) was “significantly reduced microglial cell death”.

In the case of `Cl.N=C(Nc1cccc(Cl)c1)Nc1cccc(Cl)c1` [Chloro-DTG, N,N′-di-m-Chlorophenylguanidine hydrochloride], the “Infarct volume vs vehicle” value (rats following MCAO [4]) is reported as “did not show significant effects over vehicle”.

In the case of `Cl.N=C(Nc1ccc([N+](=O)[O-])cc1)Nc1ccc([N+](=O)[O-])cc1` [NAD, N,N′-di-p-Nitrophenylguanidine hydrochloride], the “Average grip strength vs non-treated rats” value (rats following MCAO [5]) is reported as “significantly higher”, the “Infarct volume vs vehicle” value (rats following MCAO [4]) is reported as “not significant” and the “Overall behavioral data vs vehicle, all tests except Grip Strength and Step test” value (rats following MCAO [6]) is reported as “no significant difference”. The “Step test, steps with impaired paw compared to unimpaired paw” value (rats following MCAO [7]) was 100.3 ± 5.6% and the “Activity vs MCAO-only animals” value (rats following MCAO [8]) was “less activity than MCAO-only animals”.

For `Cl.N=C(Nc1ccc(Br)cc1)Nc1ccc(Br)cc1` [Bromo-DTG, N,N′-di-p-Bromophenylguanidine hydrochloride], the “Infarct volume vs vehicle” value (rats following MCAO [4]) was “did not show significant effects over vehicle”.
